# Measured values as given in patent US9868734B2, “Conjugate of benzofuranone and indole or azaindole, and preparation and uses thereof” (Luoda Biosciences, Inc., priority 2013, dated 2018).
# Where two headings read alike, the source gives them in different places.
# Columns and labels:
# [1] = system: human hepatocellular carcinoma cell line HepG-2; assay: MTT assay, inhibition of tumor cell growth (HepG2); assay type: cell-based; conditions: 72 hours incubation, read-out: IC50 on the tumor cells HepG2
# Method: (§1) human hepatocellular carcinoma cell line HepG-2, human lung adenocarcinoma epithelial cell line A549
# (§2) Tumor cells were seeded in RPM11640 medium containing 10% calf serum, incubated at 37° C., 5% CO2 in CO2 incubator, and passaged every 2-3 days. Cells at logarithmic growth phase were used for this experiment.
# (§3) The cells at logarithmic growth phase were formulated into suspension. The cell viability by trypan blue staining was more than 98%. The cell suspension was divided into several groups: 1 as blank control group (cell suspension plus solvent DMSO); and 2 as experimental groups (cell suspension plus compounds to be tested).
# (§4) The drugs were formulated into a stock solution in DMSO, and the concentration of the stock solution was 20 mmol (used within 4 hours). In the experiment, the work solution of the drugs was diluted with RPMI1640 medium containing 10% calf serum under aseptic condition, to a final concentration of […]. The drug concentrations were increased by 2 times (1.25-20 μM).
# (§5) The cells in logarithmic growth phase were selected, centrifuged, counted, and formulated into a cell suspension (2.5×10^4/ml) with RPMI1640 medium containing 10% calf serum. The cell suspension were inoculated into 96-well plates at a density of 5000 cells/200 μl per well, incubated for 24 hours at 37° C., 5% CO2. According to the above concentration of the drug, the cells were inoculated to 6 groups (including one control group), with 8 wells per group. After incubating for 72 hours, the viability of cells was measured by MTT assay. The absorbance value (A) was measured with detection wavelength at 540 nm, reference wavelength at 630 nm. The inhibitory rate (I) was calculated by the following equation, where T was the absorbance value of the experimental groups, and C was the absorbance value of the blank control group: I=(1−T/C)×100%
# (§6) Equation of regression line was drawn from concentration-inhibitory rate curve, from which the IC50 of tested sample was calculated.
# [2] = system: human lung adenocarcinoma epithelial cell line A549; assay: MTT assay, inhibition of tumor cell growth (A549); assay type: cell-based; conditions: 72 hours incubation, read-out: IC50 on the tumor cells A549
# Method: as §1, §2, §3, §4, §5, §6
SMILES,IC50 [1] [µM],IC50 [2] [µM],IC50 ([1]; Homo sapiens) [µM],IC50 ([2]; Homo sapiens) [µM]
CON=C1C(=C2C(=O)N(C(C)C)c3ccc(C)cc32)Oc2ccccc21 [Compound 55],4 ± 2.4,12 ± 1.9,–,–
"CON=C1C(=C2C(=O)N(Cc3ccccc3)c3ccccc32)Oc2ccccc21 [Compound 56, N1-benzyl-1′-oxo-indirubin-3′-oxime ether]",2.7 ± 1.2,7.1 ± 1.1,–,–
CON=C1C(=C2C(=O)N(Cc3ccccc3)c3ccc(F)cc32)Oc2ccccc21 [Compound 57],3.1 ± 0.8,6.9 ± 0.8,–,–
CON=C1C(=C2C(=O)N(Cc3ccccc3)c3ccc(Cl)cc32)Oc2ccccc21 [Compound 58],3.8 ± 1.5,12.1 ± 0.9,–,–
CCN1C(=O)C(=C2Oc3ccccc3C2=NOC)c2cc(F)ccc21 [Compound 59],3.7 ± 0.9,5 ± 0.9,–,–
CON=C1C(=C2C(=O)N(C(C)C)c3cc(Cl)ccc32)Oc2ccc(Cl)cc21 [Compound 60],5.4 ± 0.6,29 ± 1.8,–,–
CN1C(=O)C(=C2Oc3ccccc3C2=O)c2cnccc21 [Compound 62],11.5 ± 1,9.5 ± 2.1,–,–
CCN1C(=O)C(=C2Oc3ccccc3C2=O)c2c1ccnc2C [Compound 65],40 ± 3.1,18.5 ± 1.8,–,–
CC(C)N1C(=O)C(=C2Oc3ccccc3C2=O)c2cnccc21 [Compound 66],1.8 ± 0.6,7.4 ± 1.7,–,–
Cc1nccc2c1C(=C1Oc3ccccc3C1=O)C(=O)N2C(C)C [Compound 68],18.5 ± 1.8,14 ± 1.7,–,–
CCCCN1C(=O)C(=C2Oc3ccccc3C2=O)c2cncc(F)c21 [Compound 70],3.6 ± 0.4,4.5 ± 0.6,–,–
CON=C1C(=C2C(=O)N(Cc3ccccc3)c3ccncc32)Oc2ccccc21 [Compound 74],19 ± 1.1,9.4 ± 0.6,–,–
"O=C1Nc2ncccc2/C1=C1/Oc2ccccc2C1=O [Compound 75, 1′-oxo-7-azaindirubin]",–,–,10 ± 1.4,8 ± 1.2
CCN1C(=O)C(=C2Oc3c(Cl)cccc3C2=O)c2cccnc21 [Compound 79],31.5 ± 2.5,17.4 ± 1.7,–,–
CC(C)N1C(=O)C(=C2Oc3ccccc3C2=O)c2cc(Cl)cnc21 [Compound 82],18 ± 2.3,16 ± 2,–,–
CCN1C(=O)C(=C2Oc3c(Cl)cccc3C2=O)c2cccnc21 [Compound 85],18.5 ± 1.5,25 ± 2.7,–,–
CC(C)N1C(=O)C(=C2Oc3ccccc3C2=NO)c2cc(Cl)cnc21 [Compound 88],80.1 ± 1.5,87 ± 2.1,–,–
CON=C1C(=C2C(=O)N(Cc3ccccc3)c3ncccc32)Oc2ccccc21 [Compound 90],30.2 ± 1.5,29 ± 1.8,–,–
O=C1Nc2ccc(F)cc2C1=C1C(=O)Oc2ccccc21 [Compound 92],15.2 ± 1.2,31.7 ± 1.5,–,–

SMILES,IC50 [1] [µM],IC50 [2] [µM],IC50 ([1]; Homo sapiens) [µM],IC50 ([2]; Homo sapiens) [µM]
CN1C(=O)C(=C2C(=O)Oc3ccccc32)c2ccc(Cl)cc21 [Compound 96],14.2 ± 1.3,17.2 ± 1.6,–,–
CCN1C(=O)C(=C2C(=O)Oc3ccccc32)c2ccccc21 [Compound 100],9.2 ± 2,7 ± 1.4,–,–
CC(C)N1C(=O)C(=C2C(=O)Oc3ccccc32)c2ccccc21 [Compound 106],3.8 ± 1.5,35.5 ± 2.9,–,–
O=C1Oc2ccccc2C1=C1C(=O)N(C2OC(CO)C(O)C(O)C2O)c2ccccc21 (stereo not shown) [Compound 112],> 100,90.1 ± 4.5,–,–
COc1ccc2c(c1)C(=C1C(=O)N(Cc3ccccc3)c3ccccc31)C(=O)O2 [Compound 116],7.4 ± 1.7,3.7 ± 0.6,–,–
O=C1Oc2ccccc2C1=C1C(=O)N(Cc2ccccc2)c2ccc(Cl)cc21 [Compound 119],27.5 ± 1.3,39.6 ± 1.7,–,–
O=C1Oc2ccccc2C1=C1C(=O)N(Cc2ccccc2)c2cc(Cl)ccc21 [Compound 120],43 ± 2.2,49.1 ± 2.6,–,–
O=C1Nc2ccncc2C1=C1C(=O)Oc2ccccc21 [Compound 121],15.6 ± 1.2,11.6 ± 1.1,–,–
CN1C(=O)C(=C2C(=O)Oc3ccccc32)c2cnccc21 [Compound 123],9.1 ± 1,5.8 ± 0.8,–,–
"CCN1C(=O)C(=C2C(=O)Oc3ccccc32)c2cnccc21 [Compound 127, N-ethyl-1′-oxo-5-azaisoindigo]",8.4 ± 1.3,4.7 ± 0.9,–,–
CC(C)N1C(=O)C(=C2C(=O)Oc3ccccc32)c2cnc(F)cc21 [Compound 130],19.6 ± 1.3,28.5 ± 1.6,–,–
O=C1Oc2ccccc2C1=C1C(=O)N(Cc2ccccc2)c2ccncc21 [Compound 134],26 ± 2.1,11.5 ± 1.2,–,–
O=C1Nc2nc(Cl)ccc2C1=C1C(=O)Oc2ccccc21 [Compound 138],25.8 ± 1.7,12.1 ± 1.4,–,–
Cc1cccc2c1OC(=O)C2=C1C(=O)N(C)c2ncccc21 [Compound 140],7.3 ± 0.8,1.9 ± 0.8,–,–
CCN1C(=O)C(=C2C(=O)Oc3ccccc32)c2cc(F)cnc21 [Compound 146],35.2 ± 2.3,26.3 ± 2.1,–,–
CC(C)N1C(=O)C(=C2C(=O)Oc3ccc(F)cc32)c2cccnc21 [Compound 150],5.6 ± 0.6,7.9 ± 1.3,–,–
O=C1Oc2ccccc2C1=C1C(=O)N(Cc2ccccc2)c2ncccc21 [Compound 152],42.3 ± 1.8,18.2 ± 1.2,–,–
"CCN1C(=O)/C(=C2\Nc3ccccc3C2=O)c2ccccc21 [Compound 154, 1-ethyl-indirubin, reference compound]",–,–,7.1 ± 0.7,19 ± 1.1
"CCN1C(=O)/C(=C2\Nc3ccccc3\C2=N/O)c2ccccc21 [Compound 155, 1-ethyl-indirubin-3′-oxime, reference compound]",–,–,7 ± 1.3,30.3 ± 1.5
